The source of these data is PMC9757746 (Science Advances, 2022).

Holding throughout (format): biochemical
The target of assay [1] is T1, Cys4 (C. albicans CBS) (Candida albicans, UniProt Q59T95).
T1 sequence (Q59T95 1-496): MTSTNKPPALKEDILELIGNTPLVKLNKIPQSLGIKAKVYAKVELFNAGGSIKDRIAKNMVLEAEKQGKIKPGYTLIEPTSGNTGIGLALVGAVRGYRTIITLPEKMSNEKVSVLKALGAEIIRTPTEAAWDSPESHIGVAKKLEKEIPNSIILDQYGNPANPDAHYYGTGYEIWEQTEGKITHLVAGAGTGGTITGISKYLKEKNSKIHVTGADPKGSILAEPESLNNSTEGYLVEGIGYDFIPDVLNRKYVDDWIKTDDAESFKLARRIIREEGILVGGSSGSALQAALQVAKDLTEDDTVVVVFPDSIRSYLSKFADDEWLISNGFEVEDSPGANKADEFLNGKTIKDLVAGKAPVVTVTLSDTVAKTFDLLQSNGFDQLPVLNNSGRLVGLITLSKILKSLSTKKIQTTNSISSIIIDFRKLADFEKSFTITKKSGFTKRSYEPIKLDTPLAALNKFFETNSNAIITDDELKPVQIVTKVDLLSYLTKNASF
Kind of assay: H2S generation, lead acetate, A390. The settings on record: 10 mM L-cysteine, 10 mM L-homocysteine, 50 μM PLP, 200 mM Na/bicine pH 8.6, 37 °C; 10 min preincubation.

In assay [2] the target is T1, Cys4 (C. albicans CBS). Kind of assay: H2S generation, lead acetate, A390. The settings on record: 10 mM L-cysteine, 10 mM L-homocysteine, 50 μM PLP, 200 mM Na/bicine pH 8.6, 37 °C; screening hit.
For another assay, the target named is T2, human CBS (Homo sapiens, UniProt P35520).
T2 sequence (P35520 1-551): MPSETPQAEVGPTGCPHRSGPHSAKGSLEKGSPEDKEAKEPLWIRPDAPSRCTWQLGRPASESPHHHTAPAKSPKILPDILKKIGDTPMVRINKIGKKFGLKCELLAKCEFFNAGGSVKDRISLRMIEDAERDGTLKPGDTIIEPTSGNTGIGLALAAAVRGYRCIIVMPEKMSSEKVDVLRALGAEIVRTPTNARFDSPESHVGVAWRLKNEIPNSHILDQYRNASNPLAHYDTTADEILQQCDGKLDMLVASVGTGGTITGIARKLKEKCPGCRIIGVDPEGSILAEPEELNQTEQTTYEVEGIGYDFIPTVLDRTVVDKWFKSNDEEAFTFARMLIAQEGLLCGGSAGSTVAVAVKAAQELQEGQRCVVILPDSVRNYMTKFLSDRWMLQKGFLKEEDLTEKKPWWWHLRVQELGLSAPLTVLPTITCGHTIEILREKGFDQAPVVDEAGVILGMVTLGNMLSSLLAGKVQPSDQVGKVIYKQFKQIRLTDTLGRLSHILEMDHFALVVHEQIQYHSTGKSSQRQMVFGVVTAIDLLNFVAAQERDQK
The assay is described as follows: CBS activity inhibition. The settings on record: weaker inhibition than of fungal CBS.

The next assay deals with T3, cCBS-cc (Candida albicans, UniProt Q59T95).
T3 sequence (Q59T95 1-319): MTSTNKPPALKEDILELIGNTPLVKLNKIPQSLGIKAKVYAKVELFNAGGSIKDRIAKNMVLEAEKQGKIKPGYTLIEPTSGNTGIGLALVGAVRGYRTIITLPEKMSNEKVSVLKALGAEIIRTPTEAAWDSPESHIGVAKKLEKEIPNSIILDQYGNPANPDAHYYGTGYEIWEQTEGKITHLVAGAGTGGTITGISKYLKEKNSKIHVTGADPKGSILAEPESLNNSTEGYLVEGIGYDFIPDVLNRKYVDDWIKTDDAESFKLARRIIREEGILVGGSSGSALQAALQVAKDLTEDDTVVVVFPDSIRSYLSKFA
The assay is described as follows: H2S generation inhibition. The following applies: catalytic core.

The target of another assay is T4, Cys3 (C. albicans CSE) (Candida albicans, UniProt Q5A362).
T4 sequence (Q5A362 1-399): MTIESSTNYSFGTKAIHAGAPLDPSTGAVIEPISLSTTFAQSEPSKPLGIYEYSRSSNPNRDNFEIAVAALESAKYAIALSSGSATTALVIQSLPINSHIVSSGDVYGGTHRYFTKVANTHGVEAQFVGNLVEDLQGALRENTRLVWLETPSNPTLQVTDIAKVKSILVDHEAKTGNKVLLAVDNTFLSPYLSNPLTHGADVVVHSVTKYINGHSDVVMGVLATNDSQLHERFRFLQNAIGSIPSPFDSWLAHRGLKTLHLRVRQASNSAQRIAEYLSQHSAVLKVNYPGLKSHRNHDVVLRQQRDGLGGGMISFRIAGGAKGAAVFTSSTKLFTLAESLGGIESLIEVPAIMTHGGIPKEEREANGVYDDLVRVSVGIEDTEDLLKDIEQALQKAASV
The assay is described as follows: CSE activity inhibition. The following applies: weaker inhibition than of CBS.

As to `NOCC(=O)O` [Aminooxyacetate], the dose-dependent inhibition result at Cys4 (C. albicans CBS) [1] was “Dose-dependent inhibition of C. albicans CBS activity by PA and AOA”. As for `Cc1cc(O)cc2oc(=O)c3c(O)cc(O)cc3c12` [alternariol], the “H2S generation, lead acetate, A390” value on Cys4 (C. albicans CBS) [2] is “several hits that displayed much better activity than AOA, including PA”. On to `C=C1C(=O)O[C@@H](CCCCCCCCCCCCC)[C@@H]1C(=O)O` [protolichesterinic acid], for which the CBS activity inhibition result at human CBS is reported as “fungal CBS more potently than human CBS (fig. S19)”. In addition, the H2S generation inhibition entry on cCBS-cc was “still maintains potent ability to generate H2S and is inhibited by PA (fig. S24)”. Besides, at Cys3 (C. albicans CSE), the CSE activity inhibition entry was “it inhibited CBS more potently than CSE (fig. S18)”. As for `CC(=O)c1c(O)c(C)c(O)c2c1OC1=CC(=O)C(C(C)=O)C(=O)C12C` (stereo not drawn) [usnic acid], the “H2S generation, lead acetate, A390” value at Cys4 (C. albicans CBS) [2] is “alternariol, and usnic acid (Fig. 5A and fig. S17)”.
